The values below come from patent publication US9579296B2, “Compositions and methods for transdermal delivery of hormones and other medicinal agents” (Teikoku Pharma USA, Inc., priority 2012, dated 2017).

Like-named read-outs stand apart in the source and are kept apart here.

How the values of this data set were obtained:
To assay transdermal flux of levonorgestrel and ethinyl estradiol across the skin barrier, traditional Franz diffusion cells were used. Human cadaver skin epidermis was used as the substrate throughout all flux experiments to mimic in vivo conditions.
Prior to beginning the diffusion experiment, human cadaver epidermis was separated from underlying dermal tissue by floating the skin sample on 60° C. water for 2 minutes, followed by gently pealing the epidermis away from the dermal tissue with a spatula. The resulting epidermal tissue is then cut into squares having an approximate size of 2 cm×2 cm. Patch samples were then prepared by die-cutting the patches with a ⅝″ punch and arbor press. The release liner of the punched sample was then removed and the patch sample was placed on top of the epidermis with the drug adhesive layer contacting the stratum corneum. Gentle pressure was applied to the patch sample to achieve good contact between the adhesive layer and the stratum corneum.
Franz diffusion cells were assembled by placing the epidermis-patch samples between the receptor and donor chambers of the diffusion cell and clamping the chambers together with a pinch clamp. The receptor chamber was filled with phosphate buffered saline solution at pH 7.4 with 0.2% (w/w) NaN3 added as a preservative and 2% (w/w) beta-hydroxypropylcylclodextrin added to ensure sink conditions of the receptor fluid throughout the experiment. In addition, a stir bar was added to each receptor chamber. Care was taken to ensure any air bubbles underneath the skin were removed prior to beginning the flux study. The assembled diffusion cells were then placed in a stirring dry bath heater. The receptor chambers were continually stirred throughout the experiment and the temperature maintained at 32° C. Samples were taken at regular intervals over a period seven of days with fresh receptor solution being used to replace the removed sample aliquot. Sample aliquots were analyzed via high performance liquid chromatography (HPLC) with a gradient method using water (with 0.01% (w/w) formic acid) and acetonitrile (with 0.006% (w/w) formic acid) as the mobile phases, an Eclipse Plus C8 column, and ultraviolet (UV) detection at 220 nm. Flux values were calculated from the slopes of cumulative amounts of the drug in the receptor compartment versus time.
Transdermal delivery systems for administration of levonorgesterel and ethinyl estradiol were prepared and tested as described in Example 1, except that the adhesive polymer matrix contained levulinic acid and/or glyceryl monooleate.
Transdermal delivery systems for administration of levonorgesterel and ethinyl estradiol were prepared and tested as described in Example 1, except that the adhesive polymer matrix contained levulinic acid and/or glyceryl monooleate, and pharmaceutical grade PVP/VA S-630 (sold under the tradename Plasdone S-630 by International Specialty Products located at Wayne, N.J.) was used.
Transdermal flux assays measuring the flux of levonorgestrel were performed as described in Example 1.

As to `CCCCCCCCCCCCCC(=O)OC(C)C` [isopropyl myristate], the “flux of ethinyl estradiol, result in words” value (“flux of ethinyl estradiol” for short) is reported as “increase the flux of ethinyl estradiol relative to control Formulation A” and the “flux of levonorgestrel, result in words” value is “increase the flux of levonorgestrel relative to control Formulation A”.
Consider `CC(=O)CCC(=O)O` [levulinic acid], for which the “flux of ethinyl estradiol” value is “increase the flux of ethinyl estradiol relative to control Formulation A”.
For `CCCCCCCCCCCCOC(=O)C(C)O` (stereo not shown) [lauryl lactate], the “flux of levonorgestrel, result in words” value is on record as “increase the flux of levonorgestrel relative to control Formulation T”.
On to `CCCCCCCC/C=C\CCCCCCCC(=O)OCC(O)CO` (stereo not shown) [glyceryl monooleate], for which the “flux of ethinyl estradiol” value (Example 1, Formulations A-I) is reported as “increase the flux of ethinyl estradiol relative to control Formulation A”. The “flux of levonorgestrel, result in words” value was “increase the flux of levonorgestrel relative to control Formulation A” (Example 1, Formulations A-I) and “larger increase in the flux of levonorgestrel than levulinic acid” (Example 1, Formulations A-I, listed as Glyceryl monooleate).
